Positions of bridges follow the written chain, without caps; N, C: chain ends. Non-standard residues stand in square brackets, D forms with d. Residues, ends and D or L forms follow the SMILES beside them.
Key:
[1] = test system: biotinylated Gαs WT and His-tagged Gβγ(C68S); test: FRET based Gα/Gβγ interaction assay; type: binding, human; conditions: Gαs/Gβγ versus Gαi/Gβγ
Procedure: When we compared our GD20-bound Gαs structure with another GDP-bound Gαs structure in complex with Gβγ (FIG. 20D) (Liu et al., 2019), we noticed that GD20 induces a significant conformational shift of the Gβγ binding surface, and GD20 occupies the Gβγ binding surface in a competitive manner (FIGS. 20E-20F). […] Finally, 2× stocks of cyclic peptides were added with the protein mixtures. After incubation at room temperature for 2 hour at room temperature. The plate was read on a TECAN Spark 20 M plate reader using the TR-FRET mode with the following parameters: Lag time: […], Integration time: […], Read A: Ex 320(25) nm (filter), Em 610(20) nm (filter), Gain 130, Read B: Ex 320(25) nm (filter), Em 665(8) nm (filter), Gain 165. FRET Signal was calculated as the ratio of [Read B]/[Read A].

[2] = Plasma stability assay in human plasma; type: in vitro ADME; conditions: both sexes, pooled human plasma, 37° C., values represent 95% confidence intervals
Procedure: These assays were conducted by Pharmaron Beijing CO., Ltd. Cyclic peptides working solutions were prepared at 10 μM in DMEM with 10% FBS (Avantor, Cat #76294-180) or human plasma (Pooled, Male & Female, BioIVT, Cat #HMN666664). The assays were performed in duplicate. Vials were incubated at 37° C. at 60 rpm in a water bath and taken at designated time points including 0, 480, 1080 and 1440 min. For each time point, the initiation of the reaction was staggered so all the time points were terminated with cold acetonitrile containing internal standards (IS, 100 nM alprazolam, 200 nM labetalol, 200 nM Imipramine and 2 μM ketoplofen) at the same time. Samples were vortexed then centrifuged at 4° C. to remove proteins. The supernatants from centrifugation were diluted by ultra-pure H2O and used for LC-MS/MS analysis. All calculations were carried out using GraphPad Prism. Remaining percentages of parent compounds at each time point were estimated by determining the peak area ratios from extractedion chromatograms.

adenylyl cyclase = target: T1, adenylyl cyclase (Homo sapiens, UniProt O95622+Q08462); test: Forskolin-mediated, Gαs-independent adenylyl cyclase activation; type: biochemical
T1 construct: C1 domain (residues 442-658, VC1) of human ADCY5; C2 domain (residues 871-1082, IIC2) of human ADCY2; made in house; host or cells: Escherichia coli BL21(DE3)

Gαs S275L = Gαs S275L (Homo sapiens, UniProt P63092, S275L); test: Adenylyl cyclase activity assay in membranes of GNAS KO HEK293 cells transfected with Gαs S275L; type: biochemical; parameters: expressed in transfected cells; host or cells: GNAS KO HEK293 cells (membranes); conditions: Gαs S275L reintroduced
Text: To further assess the cellular specificity of GN13, we designed a GN13-resistant Gαs mutant based on structural analysis. […] We reasoned that mutating this serine residue to a bulky residue should create a drug-resistant Gαs mutant that blocks the GN13-Gαs interaction but would have little effect on adenylyl cyclase activation. […] By contrast, when the drug resistant mutant Gαs S275L was reintroduced into GNAS KO cells, the inhibitory effect of GN13 was abolished (FIG. 3I), providing further evidence that the observed pharmacological activity is due to GN13 binding to the switch II/α3 pocket in Gαs.
GN13 inhibition of Gαs proteins in HEK293 cell membranes (FIG. 17F and FIG. 18F).
a. Cell membrane preparation: HEK293cells, GNAS KO HEK293 cells were plated two day before transfection at a density of 1M cells per 10 cm plate. […] The protein concentrations were measured using BCA, and were normalized to 750 μg/mL. […] The cAMP concentrations were measured by the LANCE Ultra cAMP kit. […]
A cAMP standard curve was generated in the same plate using the 50 μM cAMP standard in the kit. […] 10 μL of each diluted sample was mixed with 5 μL of 4× Eu-cAMP tracer and 5 μL of 4× ULight-anti-cAMP in a white, opaque Optiplate-384 microplate, incubated for 1 hour at room temperature, and the time-resolved fluorescence resonance energy transfer (TR-FRET) signals were read on a Spark 20M plate reader. […]

T1 sequence (O95622 442-658): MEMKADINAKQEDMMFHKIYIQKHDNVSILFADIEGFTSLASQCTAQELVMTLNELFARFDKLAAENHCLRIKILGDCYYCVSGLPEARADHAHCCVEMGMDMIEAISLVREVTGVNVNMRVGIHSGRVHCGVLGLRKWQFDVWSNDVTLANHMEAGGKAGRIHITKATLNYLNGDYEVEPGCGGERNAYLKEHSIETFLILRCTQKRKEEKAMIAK
T1 sequence (Q08462 871-1082): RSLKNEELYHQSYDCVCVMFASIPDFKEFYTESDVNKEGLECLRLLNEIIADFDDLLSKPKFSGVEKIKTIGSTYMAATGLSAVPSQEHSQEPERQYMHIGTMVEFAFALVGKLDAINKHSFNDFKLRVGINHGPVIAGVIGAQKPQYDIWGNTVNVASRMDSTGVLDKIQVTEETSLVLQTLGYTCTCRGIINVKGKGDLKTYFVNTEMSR
Gαs S275L, sequence (P63092 whole entry S275L): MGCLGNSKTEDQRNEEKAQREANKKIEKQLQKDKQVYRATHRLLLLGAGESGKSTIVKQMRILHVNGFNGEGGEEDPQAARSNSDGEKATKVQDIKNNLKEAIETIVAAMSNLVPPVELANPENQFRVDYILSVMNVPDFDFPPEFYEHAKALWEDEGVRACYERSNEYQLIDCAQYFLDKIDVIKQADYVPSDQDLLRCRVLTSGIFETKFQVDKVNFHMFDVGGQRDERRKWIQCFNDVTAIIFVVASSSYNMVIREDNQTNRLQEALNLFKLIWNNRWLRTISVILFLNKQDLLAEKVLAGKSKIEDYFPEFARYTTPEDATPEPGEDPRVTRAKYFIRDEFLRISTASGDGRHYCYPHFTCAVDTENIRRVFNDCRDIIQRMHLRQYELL

Row | inhibition of forskolin-mediated, Gαs-independent adenylyl cyclase activation (adenylyl cyclase) | inhibition of isoproterenol-mediated cAMP production in cell membranes (Gαs S275L) | Structure (SMILES) | selectivity for Gαs than Gαi in the FRET assay [1] | half-life at 10 μM [2]
1 |  |  | CC[C@H](C)[C@@H]1NC(=O)[C@H](CC(C)C)NC(=O)[C@@H](Cc2ccc(O)cc2)NC(=O)CSC[C@@H](C(=O)NCC(N)=O)NC(=O)[C@@H]2CCCN2C(=O)[C@H](CC(C)C)NC(=O)[C@H](CC(N)=O)NC(=O)[C@H](CC(C)C)NC(=O)[C@H](C)NC(=O)[C@H](Cc2c[nH]c3ccccc23)NC(=O)[C@H](CCC(N)=O)NC(=O)[C@H](CCCNC(=N)N)NC(=O)[C@H](Cc2ccccc2)NC(=O)[C@H]([C@@H](C)O)NC1=O [GD20-F10L] ({CH2CO}-[dY]LITFRQWALNLPCG-NH2; thioether N-14) | 100 fold | 7.16 to 12.7 h
2 | did not inhibit | abolished | CC[C@H](C)[C@@H]1NC(=O)[C@H](C)NC(=O)[C@H](Cc2ccc(O)cc2)NC(=O)[C@H](C(C)C)NC(=O)[C@H](CO)NC(=O)[C@H](CCC(=O)O)NC(=O)[C@H](Cc2ccccc2)NC(=O)[C@@H](Cc2ccc(O)cc2)NC(=O)CSC[C@@H](C(=O)NCC(N)=O)NC(=O)[C@H](CC(C)C)NC(=O)[C@H]([C@@H](C)O)NC(=O)CNC(=O)[C@H](Cc2c[nH]c3ccccc23)NC1=O [GN13] ({CH2CO}-[dY]FESVYAIWGTLCG-NH2; thioether N-13) |  | 

From patent US20240336657A1, “G-ALPHA-S PEPTIDE INHIBITORS AND USES THEREOF” (The Regents of the University of California, priority 2021, published 2024)
